The values below come from patent US8648068B2, “Heterocycloalkyl-containing thienopyrimidines for pharmaceutical compositions” (Boehringer Ingelheim International GmbH, priority 2010, dated 2014).

In this assay the target is T1, human Mnk2a (Homo sapiens, UniProt Q9HBH9).
T1 construct: made in house; host or cells: E. coli BL21 (vector pGEX-4T1)
In words: Mnk2a in vitro kinase assay (indirect fluorescence polarization). It counts as biochemical. The conditions noted are these: GST-Mnk2a pre-activated with ERK2, 20 μM ATP, 30 μM substrate peptide; read-out: MNK2 IC50. The method, then:
Inhibitory potency of compounds against Mnk1, Mnk2a and other kinases was assessed with assays based on a format known to those skilled in the art as the indirect (competitive) fluorescence polarization. The assay detection system comprises a small fluorophore-labeled phospho-peptide (termed ligand) bound to a phospho-specific antibody. The product generated by the kinase reaction competes with the ligand for antibody binding. Based on the larger molecular volume of the bound ligand, which results in a lower rotation rate in solution, its emitted light has a higher degree of polarization than the one from the free ligand.
As a source of enzyme, human Mnk1 and human Mnk2a were expressed as GST fusion proteins in E. coli, purified to >80% homogeneity by glutathione affinity chromatography and activated in vitro with pre-activated ERK2. In brief, the open reading frames of human Mnk1 and Mnk2a were amplified from cDNA using the forward/reverse primer pairs
(utilized restriction sites underlined), respectively, and cloned into the BamHI and SalI sites of the vector pGEX-4T1 (Amersham, Sweden, cat. no. 27-4580-01). These constructs allow prokaryotic expression of Mnk1 or Mnk2a as fusion protein with a N-terminal glutathione S-transferase (GST) tag, referred to as GST-Mnk1 or GST-Mnk2a. The following expression and purification procedure was identical for GST-Mnk1 and GST-Mnk2a, referring in general to GST-Mnk, when not distinguishing between the two isoforms. Expression of GST-Mnk was in E. coli BL21 (Merck Biosciences, Germany, cat. no. 69449). Cells were grown in LB-Bouillon (Merck, Germany, cat. no. 1.10285) supplemented with 100 μg/ml ampicillin (Sigma, Germany, cat. no. A9518) at 37° C. When the culture had reached a density corresponding to an A600 of 0.8, an equal volume of ice cold LB/ampicillin was added, the culture transferred to 25° C. and induced for 4 h with 1 mM isopropyl thiogalactoside (IPTG, Roth, Germany, cat. no. 2316.4). Cells harvested by centrifugation were resuspended in 10 ml lysis buffer (50 mM tris(hydroxymethyl)aminomethane hydrochloride (Tris/HCl, Sigma, Germany, cat. no. T5941) pH 7.5, 300 mM sodium chloride (NaCl, Sigma, Germany, cat. no. S7653), 5% (w/v) glycerol (Sigma, Germany, cat. no. G5516), 3 mM DTT dithiotreitol (DTT, Sigma, Germany, cat. no. D9779)) per gram wet weight cell pellet. Lysates were prepared by disruption of cells with a sonifier and subsequent clearing by centrifugation at 38000 g for 45 min at 4° C.
The lysate was applied to a GSTPrep FF 16/10 column (Amersham, Sweden, cat. no. 17-5234-01) equilibrated with lysis buffer. Removal of unbound material was with 3 column volumes (CV) lysis buffer. Elution was with 2 CV of elution buffer (50 mM Tris/HCl pH 7.5, 300 mM NaCl, 5% (w/v) glycerol, 20 mM glutathione (Sigma, Germany, cat. no. G4251)). Peak fractions were pooled and the protein transferred into storage buffer (50 mM Tris/HCl pH 7.5, 200 mM NaCl, 0.1 mM ethylene glycol-bis(2-aminoethylether)-N,N,N′,N′-tetraacetic acid (EGTA, Aldrich, Germany, cat. no. 23, 453-2), 1 mM DTT, 10% (w/v) glycerol, 0.5 M sucrose (Sigma, Germany, cat. no. SO389) by gel filtration on a PD10 desalting column (Amersham, Sweden, cat. no. 17-0851-01). Aliquots were shock frozen in liquid nitrogen and stored at −80° C.
Activation of Mnk1 and Mnk2a was at a concentration of 2.5 μM of either purified GST-Mnk1 or GST-Mnk2a by incubation with 150 nM pre-activated NHis-ERK2 (see ERK2 assay for preparation) and 50 μM adenosine triphosphate (ATP, Sigma, cat. no. A2699) in a buffer comprising 20 mM N-(2-hydroxyethyl)piperazine-N′-(2-ethanesulfonic acid) (HEPES, Fluka, Germany, cat. no 54459)/potassium hydroxide (KOH, Roth, Germany, cat. no 6751.1) pH 7.4, 10 mM magnesium chloride (MgCl2, Sigma, Germany, cat. no. M2670), 0.25 mM DTT, 0.05% (w/v) polyoxyethylene 20 stearylether (Brij 78, Sigma, Germany, cat. no. P4019) (HMDB buffer) for 45 min at 30° C. […]
(In general: Fluorescence polarisation rises when a labelled molecule tumbles more slowly, as on binding a larger partner.)

Structures can show the parent of a compound that is named as a salt.

T1 sequence (Q9HBH9 whole entry): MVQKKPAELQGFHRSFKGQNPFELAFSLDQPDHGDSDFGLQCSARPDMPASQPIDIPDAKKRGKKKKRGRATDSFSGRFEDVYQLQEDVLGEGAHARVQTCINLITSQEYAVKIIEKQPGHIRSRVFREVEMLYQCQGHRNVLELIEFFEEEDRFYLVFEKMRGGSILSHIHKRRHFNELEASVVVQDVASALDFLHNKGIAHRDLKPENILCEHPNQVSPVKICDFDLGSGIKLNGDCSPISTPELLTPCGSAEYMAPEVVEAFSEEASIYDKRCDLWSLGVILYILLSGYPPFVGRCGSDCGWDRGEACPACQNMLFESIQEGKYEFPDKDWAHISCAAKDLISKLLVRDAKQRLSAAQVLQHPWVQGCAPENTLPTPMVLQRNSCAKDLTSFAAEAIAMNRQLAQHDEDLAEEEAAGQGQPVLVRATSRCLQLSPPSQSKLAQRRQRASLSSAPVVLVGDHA

As to `Cc1c(C(=O)NCCCN2CCCC2)sc2ncnc(Nc3ccc(F)cc3O[C@@H]3CCOC3)c12` [Example 106], the concentration for half-maximal inhibition (IC50) came out at 25 nM.
Turning to `Cc1c(C(=O)NCC(=O)N(C)C)sc2ncnc(Nc3ccc(F)cc3OC3CCOCC3)c12` [Example 157], the IC50 was 65 nM.
Then `Cc1c(C(=O)N[C@H]2C[C@@H]2N)sc2ncnc(Nc3ccc(F)cc3OC3CCOCC3)c12` [Example 144], with 47 nM; and `Cc1c(C(=O)NC2(CO)CC2)sc2ncnc(Nc3ccc(F)cc3OC3CCOCC3)c12` [Example 194], with 63 nM; and `CNC(=O)c1sc2ncnc(Nc3ccc(F)cc3OC3CCN(S(C)(=O)=O)C3)c2c1C` (centres unmarked) [Example 90], with 14 nM.
Take `CNC(=O)CCNC(=O)c1sc2ncnc(Nc3ccc(F)cc3OC3CCOCC3)c2c1C` [Example 166]: the IC50 was 37 nM.
In the case of `Cc1c(C(=O)NCC[S+](C)[O-])sc2ncnc(Nc3ccc(F)cc3OC3CCOCC3)c12` (centres unmarked) [Example 238] it was 32 nM.
In the case of `Cc1c(C(N)=O)sc2ncnc(Nc3cccnc3O[C@H]3CCOC3)c12` [Example 269, 5-Methyl-4-{2-[(S)-(tetrahydro-furan-3-yl)oxy]-pyridin-3-ylamino}-thieno[2,3-d]pyrimidine-6-carboxylic acid amide] it was 34 nM; in that of `Cc1c(C(=O)NCC2(N)CCCC2)sc2ncnc(Nc3ccc(F)cc3OC3CCOCC3)c12` [Example 140], 92 nM; in that of `Cc1c(C(=O)NC(C)(C)CO)sc2ncnc(Nc3ccc(F)cc3OC3CCOCC3)c12` [Example 226], 55 nM.
In the case of `CCCOCCNC(=O)c1sc2ncnc(Nc3ccc(F)cc3OC3CCOCC3)c2c1C` [Example 161] it was 56 nM; in that of `Cc1c(C(=O)NC2CC2)sc2ncnc(Nc3ccc(F)cc3O[C@H]3CCOC3)c12` [Example 112], 21 nM; in that of `Cc1c(C(=O)NCCCN(C)C)sc2ncnc(Nc3cccnc3O[C@@H]3CCOC3)c12` [Example 268], 100 nM.
As to `Cc1c(C(=O)N[C@@H]2CCC[C@H]2O)sc2ncnc(Nc3ccc(F)cc3OC3CCOCC3)c12` [Example 255], the IC50 is 22 nM.
Take `Cc1c(C(=O)NCCCN2CC[C@H](O)C2)sc2ncnc(Nc3ccc(F)cc3OC3CCOCC3)c12` [Example 251]: the IC50 worked out at 28 nM.
Then `Cc1c(C(=O)NCCCN2CCN(C)CC2)sc2ncnc(Nc3ccc(F)cc3OC3CCOCC3)c12` [Example 120], with 22 nM; and `Cc1c(C(N)=O)sc2ncnc(Nc3ccc(F)cc3O[C@@H]3CCOC3)c12` [Example 104], with 12 nM.
Then `Cc1c(C(=O)NCC(O)CN(C)C)sc2ncnc(Nc3ccc(F)cc3OC3CCOCC3)c12` (centres unmarked) [Example 256, 4-[4-Fluoro-2-(tetrahydro-pyran-4-yloxy)-phenylamino]-5-methyl-thieno[2,3-d]pyrimidine-6-carboxylic acid (3-dimethylamino-2-hydroxy-propyl)-amide-hydrochloride], with 37 nM.
Consider `COC[C@H]1CCCN1CCCNC(=O)c1sc2ncnc(Nc3ccc(F)cc3OC3CCOCC3)c2c1C` [Example 121], for which the IC50 is 33 nM.
For `CCOCCNC(=O)c1sc2ncnc(Nc3ccc(F)cc3OC3CCOCC3)c2c1C` [Example 160], the IC50 came out at 59 nM.
Turning to `Cc1c(C(=O)NCCCN(C)CCN(C)C)sc2ncnc(Nc3ccc(F)cc3OC3CCOCC3)c12` [Example 126], the IC50 worked out at 26 nM.
Then `Cc1c(C(=O)NCCCN2CCCC2)sc2ncnc(Nc3cccnc3O[C@@H]3CCCOC3)c12` [Example 262], with 53 nM; and `Cc1c(C(=O)NC(C)CO)sc2ncnc(Nc3ccc(F)cc3OC3CCOCC3)c12` (centres unmarked) [Example 156], with 50 nM; and `Cc1c(C(=O)NCc2ncc[nH]2)sc2ncnc(Nc3ccc(F)cc3OC3CCOCC3)c12` [Example 231], with 18 nM.
As to `Cc1c(C(=O)NCCCN(C)C)sc2ncnc(Nc3ccc(F)cc3O[C@@H]3CCOC3)c12` [Example 103, 4-{4-Fluoro-2-[(R)-(tetrahydro-furan-3-yl)oxy]-phenylamino}-5-methyl-thieno[2,3-d]pyrimidine-6-carboxylic acid (3-dimethylamino-propyl)-amide], the IC50 is 26 nM.
Then `Cc1c(C(=O)N2CCCCC2CN2CCOCC2)sc2ncnc(Nc3ccc(F)cc3OC3CCOCC3)c12` (centres unmarked) [Example 252], with 8420 nM; and `Cc1c(C(N)=O)sc2ncnc(Nc3ccc(F)cc3OC3CCN(C(=O)CN(C)C)C3)c12` (centres unmarked) [Example 95, 4-{2-[1-(2-Dimethylamino-acetyl)-pyrrolidin-3-yloxy]-4-fluoro-phenylamino}-5-methyl-thieno[2,3-d]pyrimidine-6-carboxylic acid amide], with 460 nM.
`Cc1c(C(=O)NCCN2CCCCC2)sc2ncnc(Nc3ccc(F)cc3OC3CCOCC3)c12` [Example 222]: the IC50 was 51 nM.
For the compound `Cc1c(C(=O)NCCOCCO)sc2ncnc(Nc3ccc(F)cc3OC3CCCNC3)c12` (centres unmarked) [Example 50], the IC50 is 72 nM.
With `Cc1c(C(=O)NCC(=O)N2CCCC2)sc2ncnc(Nc3ccc(F)cc3OC3CCOCC3)c12` [Example 201], the IC50 was 31 nM.
In the case of `Cc1c(C(N)=O)sc2ncnc(Nc3ccc(C(F)(F)F)cc3O[C@H]3CCCNC3)c12` [Example 65, 5-Methyl-4-[2-((S)-piperidin-3-yloxy)-4-trifluoromethyl-phenylamino]-thieno[2,3-d]pyrimidine-6-carboxylic acid amide] it was 190 nM.
In the case of `Cc1c(C(=O)NC2CCOC2)sc2ncnc(Nc3ccc(F)cc3OC3CCOCC3)c12` (centres unmarked) [Example 202] it was 70 nM; in that of `Cc1c(C(=O)NCCCN(C)C)sc2ncnc(Nc3ccc(F)cc3O[C@@H]3CCCN(S(C)(=O)=O)C3)c12` [Example 85], 7 nM.
Then `CNC(=O)CNC(=O)c1sc2ncnc(Nc3ccc(F)cc3OC3CCOCC3)c2c1C` [Example 175], with 50 nM; and `Cc1c(C(=O)NCc2ncco2)sc2ncnc(Nc3ccc(F)cc3OC3CCCNC3)c12` (centres unmarked) [Example 23], with 48 nM.
For `Cc1c(C(=O)NCc2ncco2)sc2ncnc(Nc3ccc(F)cc3OC3CCOCC3)c12` [Example 187], the half-maximal inhibitory concentration (IC50) came out at 27 nM.
As for `Cc1c(C(=O)NCCc2ccccn2)sc2ncnc(Nc3ccc(F)cc3OC3CCOCC3)c12` [Example 206], the IC50 is 43 nM.
With `Cc1c(C(=O)NS(C)(=O)=O)sc2ncnc(Nc3ccc(F)cc3OC3CCOCC3)c12` [Example 235], the IC50 amounted to 12 nM.
For `Cc1c(C(=O)NC2CN(C)C2)sc2ncnc(Nc3ccc(F)cc3OC3CCOCC3)c12` [Example 200], the IC50 stood at 69 nM.
In the case of `Cc1c(C(N)=O)sc2ncnc(Nc3ccc(C#N)cc3O[C@H]3CCCNC3)c12` [Example 67, 4-[4-Cyano-2-((S)-piperidin-3-yloxy)-phenylamino]-5-methyl-thieno[2,3-d]pyrimidine-6-carboxylic acid amide] it was 46 nM; in that of `Cc1c(C(=O)NCCC[S+](C)[O-])sc2ncnc(Nc3cccnc3OC3CCOCC3)c12` (centres unmarked) [Compound 282, 5-Methyl-4-[2-(tetrahydro-pyran-4-yloxy)-pyridin-3-ylamino]-thieno[2,3-d]pyrimidine-6-carboxylic acid (3-methanesulfinyl-propyl)-amide], 53 nM.

One may read the IC50 as the concentration that gives 50% inhibition.
